From patent US12208105B2, “Methods for attenuating graft-versus-host disease and opportunistic infections” (priority 2018, dated 2025)

Key:
[1] = test system: murine cytomegalovirus (mCMV); assay: Murine cytomegalovirus plaque assay on 3T3 fibroblasts; type: cell-based
[2] = cited from earlier work
[3] = in vitro, previous reports; cited from earlier work
CCR7 = target: T1, CCR7 (Homo sapiens, UniProt P32248); assay: Trans-well chemotaxis assay, human H9 cells; type: cell-based; design: confirm that hits identified in the HTS were active against native CCR7; endogenous in cells; host or cells: H9 cells (human cutaneous T cell lymphoma line)
T1 sequence (P32248 25-378): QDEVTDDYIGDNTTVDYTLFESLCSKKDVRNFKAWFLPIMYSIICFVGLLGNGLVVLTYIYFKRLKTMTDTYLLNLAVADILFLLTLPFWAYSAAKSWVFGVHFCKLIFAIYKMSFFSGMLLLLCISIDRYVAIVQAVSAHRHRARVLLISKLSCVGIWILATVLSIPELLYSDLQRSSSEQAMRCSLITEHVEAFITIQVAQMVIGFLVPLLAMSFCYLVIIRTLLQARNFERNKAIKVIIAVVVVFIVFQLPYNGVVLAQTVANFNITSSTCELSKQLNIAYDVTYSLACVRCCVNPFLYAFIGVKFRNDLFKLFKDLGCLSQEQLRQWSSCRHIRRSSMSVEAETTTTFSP
Experimental: FIGS. 1A-1D show cosalane impairs CCR7 driven human and murine chemotaxis. (A, B) Chemotaxis media with or without CCL19 (A) or CCL21 (B) was added to the lower chambers of the chemotaxis device. Previously untreated H9 cells were then placed in the upper chambers of the device with or without cosalane at a concentration of 2 μM. The chamber was then placed at 37° C. for 3.5 hours and total H9 migration from each upper to lower chamber determined. (A) *P=0.048 for comparison between H9 cells/30 nM CCL19 and H9 cells/30 nM CCL19/2 μM cosalane by Student's t test. (B) P>0.05 for comparison between H9 cells/200 nM CCL21 and H9 cells/200 nM CCL21/2 μM cosalane. (C, D) Chemotaxis media with or without CCL19 (C) or CCL21 (D) was added to the lower chambers of the chemotaxis device. Previously untreated primary murine T cells were then placed in the upper chambers of the device with or without cosalane at a concentration of 2 μM. Total T cell migration from each upper to lower chamber was then determined. (C) *P=0.029. (D) *P<0.001.
While useful from a screening perspective, our primary reporter assays for the HTS were not physiologic. As a result, it was important to confirm that hits identified in the HTS were active against native CCR7 and could block an actual function mediated by the receptor. For this, we used a well-described trans-well chemotaxis assay system using human H9 cells, a cutaneous T cell lymphoma line known to express high levels of CCR7 and to migrate in response to its ligands (Ott et al., J. Pharmacol. Toxicol. Meth. 51:105 (2005)). In addition, we utilized primary mouse, naïve (CD25^neg) T cells obtained from C57BL/6 mice. As depicted in FIG. 1A, human H9 cells placed in the upper chambers of the chemotaxis device readily migrated through the separating membrane when CCL19 was present in the lower chamber. […] Similarly, murine T cell chemotaxis was also impaired by cosalane in response to both CCL19 and CCL21 (FIGS. 1C-1D).
To evaluate this possibility, human H9 cells were incubated with 10 mcg/ml (13 μM) of cosalane versus DMSO vehicle for one hour and then washed free of the compound. The cells were then placed into the chemotaxis chamber as was done in FIGS. 1A-1D. […] Similar experiments were performed with naïve primary mouse T cells.

[4] = 10 mcg/ml (13 μM) one hour, then washed

CC(C)CCC[C@@H](C)[C@H]1CC[C@H]2[C@@H]3CC[C@H]4C[C@@H](CCC=C(c5cc(Cl)c(O)c(C(=O)O)c5)c5cc(Cl)c(O)c(C(=O)O)c5)CC[C@]4(C)[C@H]3CC[C@]12C [Cosalane, cosalane]
mCMV plaque number / activity, compound in infectivity media ([1]; 15 μg/ml throughout infection, MOI 0.05 and 0.005, vs DMSO): significantly reduced plaque number
mCMV visible cytopathic effect, isolated pretreatment of 3T3 cells ([1]; pretreatment only): virtually no effect
tissue accumulation ([2]; administered intravenously): propensity to accumulate within the liver
oral bioavailability ([2]; in vivo, po): very poor oral bioavailability
therapeutic index [3]: > 100
H9 cell migration in response to CCL19 (CCR7; 2 μM cosalane in upper chamber, 30 nM CCL19, 3.5 hours, vs DMSO): inhibited versus DMSO
H9 cell CCL21 driven chemotaxis (CCR7; 2 μM cosalane in upper chamber, 200 nM CCL21): reduced by cosalane, although this did not achieve statistical significance
H9 chemotaxis in response to CCL19 after pretreatment alone (CCR7; [4]): significantly reduced
H9 chemotaxis in response to CCL21 after pretreatment alone (CCR7; [4]): significantly reduced
